SMILES strings stand for the structures. Where two headings read alike, the source gives them in different places.

The target in the test is T1, recombinant human cGAS (aa147-522) (Homo sapiens, UniProt Q8N884).
T1 construct: recombinant human cGAS (aa147-522); His6-SUMO (cleaved yes); made in house; host or cells: E. coli BL21/pLys
The test can be described thus: In vitro inhibition assay of cGAS activity (ATP consumption, KinaseGlo Max). The class given is biochemical. As to the method: Expression and Purification of Recombinant cGAS Protein: cDNA encoding full-length or amino acids […] of human cGAS was inserted into a modified pET28a vector containing an in-frame His6-SUMO tag. The E. coli strain BL21/pLys harboring the plasmid was induced with 0.5 mM IPTG at 18° C. overnight. His6-SUMO tag was removed by a SUMO protease digestion following purification of the His6-SUMO-cGAS as described previously (Sun et al, 2013, Science 339, 786).
In vitro inhibition assay of cGAS activity: A 60 μL mixture containing 20 mM Tris-Cl, pH 7.5, 5 mM MgCl2, 0.2 mg/mL BSA, 0.01 mg/mL Herring testis DNA, 6.6 μM ATP, 0.1 mM GTP, 1.5 μg/mL of recombinant human cGAS (aa147-522) and serial dilutions of a test compound in DMSO was added to a 96-well plate and incubated at 37° C. for 20 minutes. At the end of reaction, 40 μL of KinaseGlo Max (Promega) was added and chemiluminescence was measured with a luminometer. Inhibitory effect of a compound is evaluated by plotting percentage of ATP consumption against logarithm of compound concentrations. IC50 value was calculated using GraphPad Prism 8 (GraphPad Software, Inc.).
The letter codes for cGAS IC50 include: A (<2 μM); B (2-30 μM); C (>30 μM).

Where [1] appears, read: Table 2, read-out: cGAS Inhibition Results IC50.

T1 sequence (Q8N884 147-522): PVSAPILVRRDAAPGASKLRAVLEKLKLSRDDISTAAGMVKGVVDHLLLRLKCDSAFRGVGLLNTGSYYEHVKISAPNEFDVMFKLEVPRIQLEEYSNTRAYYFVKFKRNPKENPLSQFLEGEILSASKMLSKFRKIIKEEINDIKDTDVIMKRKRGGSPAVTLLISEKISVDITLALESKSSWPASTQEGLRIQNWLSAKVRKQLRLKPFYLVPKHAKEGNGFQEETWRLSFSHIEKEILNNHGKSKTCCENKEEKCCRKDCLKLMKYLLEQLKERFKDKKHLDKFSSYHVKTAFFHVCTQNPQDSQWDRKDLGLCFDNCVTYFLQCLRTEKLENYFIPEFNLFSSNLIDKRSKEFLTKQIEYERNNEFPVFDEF

`O=C(O)CCOC[C@@H]1[C@@H]2C[C@@H]2CN1c1cc(-n2ccnc2)c2ccc(Cl)c(Cl)c2n1` (stereo in doubt) [I-809]: the IC50 – broadly, the concentration at which inhibition is half-maximal – (Table 3, read-out: cGAS Inhibition Results IC50) was < 2 µM. With `Clc1ccc2c(-n3ccnc3)cc(-c3ccccc3)nc2c1` [I-1], the concentration for half-maximal inhibition (IC50) under setting [1] lay in the range of 2 to 30 µM.

In the case of `COc1ccc(-c2cc(-n3ccnc3)c3ccc(Cl)cc3n2)cc1` [I-2, 7-chloro-4-(1H-imidazol-1-yl)-2-(4-methoxyphenyl)quinoline], the IC50 under setting [1] fell in the range of 2 to 30 µM. Same read-out and setting: for `COC(=O)c1ccc(-c2cc(-n3ccnc3)c3ccc(Cl)cc3n2)cc1` [I-3] the value was > 30 µM; for `O=C(O)c1ccc(-c2cc(-n3ccnc3)c3ccc(Cl)cc3n2)cc1` [I-4], 2 to 30 µM. For the molecule `COC(=O)c1cccc(-c2cc(-n3ccnc3)c3ccc(Cl)cc3n2)c1` [I-5], the IC50 under setting [1] was 2 to 30 µM.

Consider `O=C(O)c1cccc(-c2cc(-n3ccnc3)c3ccc(Cl)cc3n2)c1` [I-6, 3-(7-Chloro-4-(1H-imidazol-1-yl)quinolin-2-yl)benzoic acid], for which, under setting [1], the IC50 is < 2 µM. Same read-out and setting: for `NC(=O)c1cccc(-c2cc(-n3ccnc3)c3ccc(Cl)cc3n2)c1` [I-7, 3-(7-chloro-4-(1H-imidazol-1-yl)quinolin-2-yl)benzamide] the value was 2 to 30 µM; for `Nc1cccc(-c2cc(-n3ccnc3)c3ccc(Cl)cc3n2)c1` [I-8, 3-(7-chloro-4-(1H-imidazol-1-yl)quinolin-2-yl)aniline], 2 to 30 µM; for `O=C(O)Cc1cccc(-c2cc(-n3ccnc3)c3ccc(Cl)cc3n2)c1` [I-9], > 30 µM.

`CS(=O)(=O)Nc1cccc(-c2cc(-n3ccnc3)c3ccc(Cl)cc3n2)c1` [I-10, N-(3-(7-chloro-4-(1H-imidazol-1-yl)quinolin-2-yl)phenyl)methanesulfonamide]: under setting [1], the half-inhibitory concentration (IC50) lay in the range of 2 to 30 µM. As to `NC(=O)Nc1cccc(-c2cc(-n3ccnc3)c3ccc(Cl)cc3n2)c1` [I-11, 1-(3-(7-chloro-4-(1H-imidazol-1-yl)quinolin-2-yl)phenyl)urea], the IC50 under setting [1] fell in the range of 2 to 30 µM.

`CCOC(=O)c1ccccc1-c1cc(-n2ccnc2)c2ccc(Cl)cc2n1` [I-12]: under setting [1], the IC50 is > 30 µM. Regarding `O=C(O)c1ccccc1-c1cc(-n2ccnc2)c2ccc(Cl)cc2n1` [I-13], the IC50 under setting [1] was > 30 µM. Still for that read-out and setting: the same measure for `O=C(O)Cc1ccccc1-c1cc(-n2ccnc2)c2ccc(Cl)cc2n1` [I-14]: > 30 µM; for `O=C(O)c1cc(-c2cc(-n3ccnc3)c3ccc(Cl)cc3n2)ccc1O` [I-16, 5-(7-chloro-4-(1H-imidazol-1-yl)quinolin-2-yl)-2-hydroxybenzoic acid]: > 30 µM. Still for that read-out and setting: the same measure for `O=C(O)c1cc(-c2cc(-n3ccnc3)c3ccc(Cl)cc3n2)ccc1F` [I-17]: 2 to 30 µM. For `O=C(O)c1cc(-c2cc(-n3ccnc3)c3ccc(Cl)cc3n2)ccc1OC(F)(F)F` [I-18], the IC50 under setting [1] is 2 to 30 µM. Turning to `CCOc1ccc(-c2cc(-n3ccnc3)c3ccc(Cl)cc3n2)cc1C(=O)O` [I-19, 5-(7-chloro-4-(1H-imidazol-1-yl)quinolin-2-yl)-2-ethoxybenzoic acid], under setting [1], the IC50 is < 2 µM. In the case of `Nc1ccc(-c2cc(-n3ccnc3)c3ccc(Cl)cc3n2)cc1C(=O)O` [I-20], under setting [1], the IC50 was < 2 µM. For `O=C(O)c1cc(-c2cc(-n3ccnc3)c3ccc(Cl)cc3n2)ccc1OCCO` [I-21, 5-(7-chloro-4-(1H-imidazol-1-yl)quinolin-2-yl)-2-(2-hydroxyethoxy)benzoic acid], the IC50 under setting [1] is < 2 µM. The same measure, in the same setting: for `Nc1cc(C(=O)O)cc(-c2cc(-n3ccnc3)c3ccc(Cl)cc3n2)c1` [I-22, 3-amino-5-(7-chloro-4-(1H-imidazol-1-yl)quinolin-2-yl)benzoic acid] the value was < 2 µM; for `O=C(CO)Nc1cc(C(=O)O)cc(-c2cc(-n3ccnc3)c3ccc(Cl)cc3n2)c1` [I-23, 3-(7-chloro-4-(1H-imidazol-1-yl)quinolin-2-yl)-5-(2-hydroxyacetamido)benzoic acid], < 2 µM; for `CC(C)(C)c1cc(C(=O)O)cc(-c2cc(-n3ccnc3)c3ccc(Cl)cc3n2)c1` [I-25], > 30 µM. With `O=C(O)c1cc(O)cc(-c2cc(-n3ccnc3)c3ccc(Cl)cc3n2)c1` [I-26, 3-(7-chloro-4-(1H-imidazol-1-yl)quinolin-2-yl)-5-hydroxybenzoic acid], the IC50 under setting [1] is < 2 µM. Same read-out and setting: the same measure for `O=C(O)c1cc(Br)cc(-c2cc(-n3ccnc3)c3ccc(Cl)cc3n2)c1` [I-27]: > 30 µM; for `O=C(O)c1cc(C(=O)O)cc(-c2cc(-n3ccnc3)c3ccc(Cl)cc3n2)c1` [I-28]: < 2 µM; for `O=C(O)c1cc(OCCO)cc(-c2cc(-n3ccnc3)c3ccc(Cl)cc3n2)c1` [I-29]: < 2 µM. On the same count and under the same terms, the same measure for `COc1ccc(C(=O)O)cc1-c1cc(-n2ccnc2)c2ccc(Cl)cc2n1` [I-30]: 2 to 30 µM; for `O=C(O)c1ccc(Cl)c(-c2cc(-n3ccnc3)c3ccc(Cl)cc3n2)c1` [I-31]: > 30 µM; for `O=C(O)c1cncc(-c2cc(-n3ccnc3)c3ccc(Cl)cc3n2)c1` [I-32]: < 2 µM.

`COc1ncc(-c2cc(-n3ccnc3)c3ccc(Cl)cc3n2)cc1C(=O)O` [I-33, 5-(7-chloro-4-(1H-imidazol-1-yl)quinolin-2-yl)-2-methoxynicotinic acid]: under setting [1], the 50% inhibitory concentration (IC50) lay in the range of 2 to 30 µM.

As to `COC(=O)c1cncc(-c2cc(-n3ccnc3)c3ccc(Cl)cc3n2)c1` [I-34], the IC50 under setting [1] was > 30 µM.

With `Clc1ccc2c(-n3ccnc3)cc(-c3ccc4nn[nH]c4c3)nc2c1` [I-35], the IC50 under setting [1] was 2 to 30 µM. The same measure, in the same setting: for `O=c1[nH]c2cc(-c3cc(-n4ccnc4)c4ccc(Cl)cc4n3)ccc2o1` [I-36] the value was > 30 µM; for `O=C(O)c1cc2c(c(-c3cc(-n4ccnc4)c4ccc(Cl)cc4n3)c1)OCO2` [I-37], > 30 µM; for `O=C(O)c1cc2c(c(-c3cc(-n4ccnc4)c4ccc(Cl)cc4n3)c1)OC(F)(F)O2` [I-38], > 30 µM.

Consider `COc1ccc(-c2cc(-n3ccnc3)c3ccc(Cl)c(Cl)c3n2)cc1C#N` [I-40], for which the IC50 under setting [1] was > 30 µM.

As to `COc1ccc(-c2cc(-n3ccnc3)c3ccc(Cl)c(Cl)c3n2)cc1O` [I-41], under setting [1], the concentration for half-maximal inhibition (IC50) was < 2 µM.

As to `O=C(O)c1cc(-c2cc(-n3ccnc3)c3ccc(Cl)c(Cl)c3n2)ccc1O` [I-42, 5-(7,8-dichloro-4-(1H-imidazol-1-yl)quinolin-2-yl)-2-hydroxybenzoic acid], the IC50 under setting [1] is < 2 µM. The same measure, in the same setting: the same measure for `Oc1cccc(-c2cc(-n3ccnc3)c3ccc(Cl)c(Cl)c3n2)c1` [I-43]: < 2 µM. In the case of `Oc1cc(OC(F)(F)F)cc(-c2cc(-n3ccnc3)c3ccc(Cl)c(Cl)c3n2)c1` [I-44], the IC50 under setting [1] is > 30 µM. Still for that read-out and setting: for `COc1c(C(=O)O)cccc1-c1cc(-n2ccnc2)c2ccc(Cl)c(Cl)c2n1` [I-45] the value was 2 to 30 µM; for `NS(=O)(=O)c1cccc(-c2cc(-n3ccnc3)c3ccc(Cl)c(Cl)c3n2)c1` [I-46], < 2 µM; for `Oc1ccc(-c2cc(-n3ccnc3)c3ccc(Cl)c(Cl)c3n2)cc1` [I-47], < 2 µM. Still for that read-out and setting: for `COc1c(Br)ccc2c(-n3ccnc3)cc(-c3cccc(C(=O)O)c3)nc12` [I-48, 3-(7-Bromo-4-(1H-imidazol-1-yl)-8-methoxyquinolin-2-yl)benzoic acid] the value was < 2 µM; for `O=C(O)c1cccc(-c2cc(-n3ccnc3)c3ccc(C(F)(F)F)cc3n2)c1` [I-49, 3-(4-(1H-imidazol-1-yl)-7-(trifluoromethyl)quinolin-2-yl)benzoic acid], > 30 µM; for `Clc1cc2nc(-c3ccccc3)cc(-n3ccnc3)c2cc1Cl` [I-50], < 2 µM. Regarding `COc1c(-c2ccccc2)ccc2c(-n3ccnc3)cc(-c3ccccc3)nc12` [I-51], under setting [1], the IC50 was > 30 µM.

In the case of `Clc1c(-n2ccnc2)cc2c(-n3ccnc3)cc(-c3ccccc3)nc2c1Cl` [I-52], the IC50 under setting [1] was > 30 µM. The same measure, in the same setting: for `Oc1c(Br)ccc2c(-n3ccnc3)cc(-c3ccccc3)nc12` [I-53, 7-bromo-4-(1H-imidazol-1-yl)-2-phenylquinolin-8-ol] the value was 2 to 30 µM. Same read-out and setting: the same measure for `COc1c(Br)ccc2c(-n3ccnc3)cc(-c3ccccc3)nc12` [I-54, 7-bromo-4-(1H-imidazol-1-yl)-8-methoxy-2-phenylquinoline]: 2 to 30 µM.

For `O=C(O)c1cc(-c2cc(-n3ccnc3)c3ccc(Cl)cc3n2)cs1` [I-55], the IC50 under setting [1] is < 2 µM. For `O=C(O)c1cc(-c2cc(-n3ccnc3)c3ccc(Cl)cc3n2)c[nH]1` [I-56, 4-(7-chloro-4-(1H-imidazol-1-yl)quinolin-2-yl)-1H-pyrrole-2-carboxylic acid], under setting [1], the IC50 lay in the range of 2 to 30 µM.

`O=C(O)c1cc(-c2cc(-n3ccnc3)c3ccc(Cl)cc3n2)cnc1O` [I-57, 5-(7-chloro-4-(1H-imidazol-1-yl)quinolin-2-yl)-2-hydroxynicotinic acid]: the IC50 under setting [1] lay in the range of 2 to 30 µM. On the same count and under the same terms, for `Oc1ccc(-c2cc(-n3ccnc3)c3ccc(Cl)cc3n2)cn1` [I-58] the value was > 30 µM.

With `Oc1cc(-c2cc(-n3ccnc3)c3ccc(Cl)cc3n2)ccn1` [I-59], the half-maximal inhibitory concentration (IC50) under setting [1] is > 30 µM. The same measure, in the same setting: for `Cc1cn(-c2cc(-c3ccccc3)nc3cc(Cl)ccc23)cn1` [I-60] the value was > 30 µM; for `Cc1ncn(-c2cc(-c3ccccc3)nc3cc(Cl)ccc23)c1C` [I-61], > 30 µM.

The values are drawn from US11873291B2, “Quinoline cGAS antagonist compounds” (ImmuneSensor Therapeutics, Inc., priority 2020, dated 2024).
